Values after ≈ are worked out from the molar mass of the structure shown.
Assays:
Daoy (glioblastoma) = assay: MTS cell viability assay, Daoy; settings: Homo sapiens, Daoy, 72 h, read-out: IC50 Daoy
Description: (§2) Cells were plated, the evening before treatment, for each treatment on 96-well plates (1×10^4 cells/well) in 100 μL volume per well. Drug solutions were prepared by diluting each test compound in DSMO (10 mM) with the appropriate cell growth media for each individual cell line, or in “Universal Media” if several cell lines were to be assayed in parallel, immediately prior to cell treatment. Universal Media consisted of 5 mL sodium pyruvate (100×liquid stock, CellGro), 5 mL glucose (100×, 45% liquid stock, CellGro), 5 mL Penicillin/Streptomycin (100×liquid stock, CellGro), 10 mL sodium bicarbonate (50×liquid stock, CellGro), 25 mL Fetal Calf Serum, 1.25 mL insulin (4 mg/mL, Gibco) and 449 mL RPMI media with 2 mM glutamine for a total volume of 500 mL. Cells were treated by aspirating media from each well and adding 80 μL of each drug solution to the attached cells. All treatments were performed in triplicate. Growth media (80 μL) were added to 3 blank wells (no cells) to measure background from the growth media Growth media alone (no DMSO or test compond) was added to 2 wells containing cells to measure the baseline MTS activity and vehicle (DMSO) control solutions were also included to monitor basal toxicity from DMSO. Cells were incubated at 37° C. for 72 h. MTS reagent (per 96-well plate) were prepared by combining 2 mL of MTS working solution (Cell Titer AQueous Non-Radioactive Cell Proliferation Assay, Promega, cat#G1112), 100 μL of 0.92 mg/mL phenazine methosulfate/Dulbecco's PBS and 2.1 mL growth media. MTS reagent (40 μL) were added to each well and incubated at 37° C. for 1.5 to 4 h. Plates were gently shaken by hand until solution in each well appeared homogenous. Absorbances at 490 nm were measured on a plate reader at multiple time points following the addition of MTS reagent for each plate. Triplicate absorbance (490 nm) measurements were averaged following background (no cell) subtraction for each drug concentration. Percent Cell Viability was calculated for each drug concentration using the following equation: {[Absorbances(drug treated)]/[Absorbances(DMSO treated)]}×100%
(§3) Percent viability (y-axis) was plotted against drug concentration (x-axis) and the resulting graph was used to determine the 50% inhibitory concentration (IC50) for each drug.

HT-29 (colon carcinoma) = assay: MTS cell viability assay, HT-29; format: cell-based; settings: Homo sapiens, 72 h
Description: (§1) All treatments were performed in triplicate. […] Cells were incubated at 37° C. for 72 h.

[1] = system: OVCAR-3 (ovarian carcinoma); assay: MTS cell viability assay, OVCAR-3; format: cell-based; settings: Homo sapiens, 72 h
Description: as §1

MCF-7 (breast carcinoma) = assay: MTS cell viability assay, MCF-7; format: cell-based; settings: Homo sapiens, MCF7, 72 h
Description: as §1

A-375 (melanoma) = assay: MTS cell viability assay, A-375; format: cell-based; settings: Homo sapiens, 72 h
Description: as §1

SK-MEL-2 (melanoma) = assay: MTS cell viability assay, SK-MEL-2; settings: Homo sapiens, SK-MEL-2, 72 h, read-out: IC50 SK-MEL-2
Description: as §2, §3

LN-229 (glioblastoma) = assay: MTS cell viability assay, LN-229; format: cell-based; settings: Homo sapiens, 72 h
Description: as §1

[2] = system: SK-MEL-2, A-375, Daoy, LN-229, OVCAR-3, HT-29, MCF-7 cell lines; format: cell-based
Description: as §1

SK-MEL-2 cells = assay: Caspase activation assay, SK-MEL-2; format: cell-based; settings: SK-MEL-2
Description: All treatments were performed in duplicate. […] Cells were incubated at 37° C. for 8 h. Caspase assay reagent (per 96-well plate) was prepared according to manufacturer's instructions (Homogeneous Caspases Assay, fluorometric, Roche) by combining 6.3 mL Incubation Buffer with 0.7 mL of Substrate Stock Solution. Caspase assay reagent (70 μL) was added to each well; the plate was gently shaken by hand for 15-20 seconds and incubated at 37° C. for 4 h.
Fluorescent emission was measured at 535 nm on a plate reader using the “homogeneous caspase” program (excitation Wavelength=490 nm, emission wavelength=535 nm). Duplicate wells for each treatment were averaged following background (no cells) subtraction (emission 535 nm value from all experimental emission 535 nm values) for each drug concentration.
DMSO treatment represented baseline caspase activation in the absence of drug. The percent changes in caspase activity were plotted on the y-axis for each drug treatment.
Caspase activation assays were conducted to further characterize the mode of cell death. A treatment time and dose at which maximum caspase activation was observed prior to massive cell destruction would be indicative of apoptosis induction. SK-MEL-2 cells were treated with 5, 15, and 50 μM of the compound for 2, 4, 6, 8, 16, and 24 h in the absence of FBS (Fetal Bovine Serum).

In the case of `C=C(C)[C@@H]1CC[C@]2(C(=O)O)CC[C@]3(C)[C@H](CC[C@@H]4[C@@]5(C)CC[C@H](NCCc6ccc(O)cc6)C(C)(C)[C@@H]5CC[C@]43C)[C@@H]12` [Compound 82, (1R,3aS,5aR,5bR,7aR,9S,11aR,11bR,13aR,13bR)-9-(4-hydroxyphenethylamino)-5a,5b,8,8,11a-pentamethyl-1-(prop-1-en-2-yl)icosahydro-1H-cyclopenta[a]chrysene-3a-carboxylic acid], the IC50 (Daoy (glioblastoma)) is reported as 5 µg/mL (≈ 8.68 µM), the IC50 (HT-29 (colon carcinoma)) is reported as 4 µg/mL (≈ 6.95 µM) and the IC50 [1] is reported as 6 µg/mL (≈ 10.4 µM). For the same molecule, the IC50 (MCF-7 (breast carcinoma)) was 6 µg/mL (≈ 10.4 µM), the IC50 (A-375 (melanoma)) was 5 µg/mL (≈ 8.68 µM) and the IC50 (SK-MEL-2 (melanoma)) was 5 µg/mL (≈ 8.68 µM). The IC50 (LN-229 (glioblastoma)) was 5 µg/mL (≈ 8.68 µM) and the “cytotoxic potency across the cell line panel (in words)” value [2] was “potent across the entire cell line panel”.
With `C=C(C)[C@@H]1CC[C@]2(COC(=O)CBr)CC[C@]3(C)[C@H](CC[C@@H]4[C@@]5(C)C=C(C#N)C(=O)C(C)(C)[C@@H]5CC[C@]43C)[C@@H]12` [Compound 39, ((1R,3aS,5aR,5bR,7aR,11aR,11bR,13aR,13bR)-10-cyano-5a,5b,8,8,11a-pentamethyl-9-oxo-1-(prop-1-en-2-yl)-2,3,3a,4,5,5a,5b,6,7,7a,8,9,11a,11b,12,13,13a,13b-octadecahydro-1H-cyclopenta[a]chrysen-3a-yl)methyl 2-bromoacetate] the IC50 (Daoy (glioblastoma)) was less than 2 µg/mL, the IC50 (HT-29 (colon carcinoma)) was 6 µg/mL (≈ 10.3 µM) and the “caspase activation in SK-MEL-2 (in words)” value (SK-MEL-2 cells) was “induced caspase activation”. For the same molecule, the IC50 [1] was 7 µg/mL (≈ 12 µM), the IC50 (MCF-7 (breast carcinoma)) was 13 µg/mL (≈ 22.2 µM) and the IC50 (A-375 (melanoma)) was 4 µg/mL (≈ 6.84 µM). The IC50 (SK-MEL-2 (melanoma)) was 20 µg/mL (≈ 34.2 µM) and the IC50 (LN-229 (glioblastoma)) was 7 µg/mL (≈ 12 µM).
With `C=C(C)[C@@H]1CC[C@]2(CO)CC[C@]3(C)[C@H](CC[C@@H]4[C@@]5(C)CC6=C(ON(O)C6)C(C)(C)[C@@H]5CC[C@]43C)[C@@H]12` [Compound 33, (1R,3aS,5aR,5bR,7aR,12aR,12bR,14aR,14bR)-3a-(hydroxymethyl)-1-isopropenyl-5a,5b,8,8,12a-pentamethyl-1,2,3,3a,4,5,5a,5b,6,7,7a,8,11,12,12a,12b,13,14, 14a,14b-icosahydro-10H-cyclopenta[7,8]chryseno[3,2-d]isoxazol-10-ol] the “caspase activation in SK-MEL-2 (in words)” value (SK-MEL-2 cells) was “induced caspase activation”.
`CC(C)[C@@H]1CC[C@]2(C(=O)O)CC[C@]3(C)[C@H](CC[C@@H]4[C@@]5(C)CC[C@H](N)C(C)(C)[C@@H]5CC[C@]43C)[C@@H]12` [Compound 86, (1S,3aS,5aR,5bR,7aR,9S,11aR,11bR,13aR,13bR)-9-amino-1-isopropyl-5a,5b,8,8,11a-pentamethylicosahydro-1H-cyclopenta[a]chrysene-3a-carboxylic acid] gave an IC50 (Daoy (glioblastoma)) of 6 µg/mL (≈ 13.1 µM), an IC50 (HT-29 (colon carcinoma)) of 5 µg/mL (≈ 10.9 µM) and an IC50 [1] of 6 µg/mL (≈ 13.1 µM). It also gave an IC50 (MCF-7 (breast carcinoma)) of 6 µg/mL (≈ 13.1 µM), an IC50 (A-375 (melanoma)) of 5 µg/mL (≈ 10.9 µM) and an IC50 (SK-MEL-2 (melanoma)) of 6 µg/mL (≈ 13.1 µM). The IC50 (LN-229 (glioblastoma)) was 5 µg/mL (≈ 10.9 µM) and the “cytotoxic potency across the cell line panel (in words)” value [2] was “potent across the entire cell line panel”.
